Measurements as given in ChEMBL document CHEMBL1208731, “A novel, broad-spectrum anticancer compound containing the imidazo[4,5-e][1,3]diazepine ring system” (Bioorg Med Chem Lett, 2010).
The source made the active and inactive calls. No cut-off for these calls is given here.

Legend:
Type in all cases: functional, cell-based
NCI-H460 = test: Cytotoxicity against human H460 cells after 72 hrs; settings: NCI-H460, 72 h
MCF7 = test: Cytotoxicity against human MCF7 cells after 72 hrs; settings: MCF7, 72 h
A549 = test: Cytotoxicity against human A549 cells after 72 hrs; settings: A549, 72 h
OVCAR-3 = test: Cytotoxicity against human OVCAR-3 cells after 72 hrs
PC-3 = test: Cytotoxicity against human PC3 cells after 72 hrs; settings: PC-3, 72 h

`CCNc1nc(N)c2ncnc-2c(N)n1` showed an IC50 (NCI-H460) of 22 µM, an IC50 (MCF7) greater than 800 µM and an IC50 (A549) of 38 µM. The Activity (OVCAR-3) was “Active” and the IC50 (PC-3) was greater than 800 µM.
